Target: Chloride intracellular channel-1 (CLIC1) (Homo sapiens, UniProt O00299)
Assay: microscale thermophoresis (also CLIC1 current block by patch clamp in GBM3 GSCs)
Assay type: binding
Set-up: recombinant CLIC1, NHS dye-labelled

Kd	SMILES
15.6 ± 1.9 µM	COc1ccc(/N=C(\N)N=C(N)N)cc1 [Q48]
1900 ± 500 µM	COc1ccc(N2C(N)=NC(N)=NC2(C)C)cc1 [Q54]

Source: publication PMC8822754, “Chloride intracellular channel 1 activity is not required for glioblastoma development but its inhibition dictates glioma stem cell responsivity to novel biguanide derivatives” (Journal of Experimental & Clinical Cancer Research : CR, 2022)
